The source of these data is doi:10.1101/2024.08.25.609621 (bioRxiv, 2024).

Where two headings read alike, the source gives them in different places. A value given as a limit tells only on which side of the number the result lay.

In test [1] the target is SARS-CoV-2 NSP3 macrodomain (Mac1) (Severe acute respiratory syndrome coronavirus 2, UniProt P0DTD1). Briefly: biochemical. The format is binding.
For test [2], the target named is SARS-CoV-2 NSP3 macrodomain (Mac1), P43 crystal form (Severe acute respiratory syndrome coronavirus 2, UniProt P0DTD1). The format is binding.
The mark [3] stands for this setting: Single dose, concentration 200 μM, read-out: Average % competition.
Setting [4] is: preliminary screen, compound at 200 μM, mean of 3-4 technical replicates, read-out: % competition in HTRF assay.
Setting [5] is: ligand modeling in Mac1 crystal soak.
The mark [6] stands for this setting: Single dose, concentration 200 μM, read-out: SARS CoV-2 macrodomain HTRF assay: Average % competition.
The mark [7] stands for this setting: stereoisomer(s) of ligand modeled in Mac1 crystal structure.
Where [8] appears, read: dose-response, read-out: SARS CoV-2 macrodomain HTRF assay: IC50.
Setting [9] is: dose-response, read-out: SARS CoV-2 macrodomain HTRF assay: Ki.
The mark [10] stands for this setting: from SARS CoV-2 macrodomain HTRF assay.
Setting [11] is: ligand modeling in Mac1 crystal structure.

For `OCC(CC(O)c1ccccc1)Nc1ncnc2[nH]ccc12` (centres unmarked) [AVI-3642], the inhibition at 200 µM in test [1] (setting [3]) was below 10%. Besides, the inhibition at 200 µM in test [1] (setting [4]) was below 10%. Besides, in test [2] (crystal soak 10 mM), the “PanDDA run, TFA/DMSO background map: 1-BDC” value was 0.17 and the “PanDDA run, TFA/DMSO background map: Hit” value was “TRUE”. Further, the “Number of isomers bound” value in test [2] (setting [5]) amounted to 1.

As for `O[C@@H]1CN(c2ncnc3[nH]ccc23)C[C@H]1F` [AVI-616], the inhibition at 200 µM in test [1] (setting [3]) and in test [1] (setting [4]) was 15% each time. Also, in test [2] (setting [5]), the “Number of isomers bound” value came to 1.

Regarding `OCC1CC2(CCC2)CN1c1ncnc2[nH]ccc12` (centres unmarked) [AVI-3728], the inhibition at 200 µM in test [1] (setting [6]) and in test [1] (setting [4]) was 79% throughout. In test [2] (setting [5]), the “Number of isomers bound” value was 1. The “PanDDA run, TFA/DMSO background map: 1-BDC” value in test [2] (soak concentration 10 mM) is listed as 0.26. For the same compound, in test [2] (soak concentration 10 mM), the “PanDDA run, TFA/DMSO background map: Hit” value is “TRUE”. Further, the Isomers modeled entry in test [2] (setting [7]) is given as “S,S”.

For `OCC1C=CCCN1c1ncnc2[nH]ccc12` (centres unmarked) [AVI-5998], in test [1] (setting [8]), the IC50 was 160 µM. In test [1] (setting [9]), the Ki amounted to 150 µM. Moreover, in test [1] (setting [10]), the “Ligand efficiency (binding enery per heavy atom)” value was 0.31. Moreover, in test [2] (setting [11]), the “Number of isomers bound” value turned out to be 1.

`OCC(Cc1ccoc1)Nc1ncnc2[nH]ccc12` (centres unmarked) [AVI-3705]: in test [1] (setting [3]), the inhibition at 200 µM stood at 64%. In addition, the inhibition at 200 µM in test [1] (setting [4]) is 64%. In addition, in test [2] (setting [5]), the “Number of isomers bound” value was determined as 1. Besides, in test [2] (soak concentration 10 mM), the “PanDDA run, TFA/DMSO background map: 1-BDC” value is reported as 0.14 and the “PanDDA run, TFA/DMSO background map: Hit” value is recorded as “TRUE”.

`CC1CCC(O)(CNc2ncnc3[nH]ccc23)CC1` (centres unmarked) [AVI-4312]: in test [1] (setting [8]), the half-inhibitory concentration (IC50) was determined as 21 µM. In test [1] (setting [9]), the Ki came out at 20 µM. The “Ligand efficiency (binding enery per heavy atom)” value in test [1] (setting [10]) is given as 0.34. In addition, in test [2] (setting [11]), the “Number of isomers bound” value is on record as 1. Moreover, in test [2] (stereoisomer(s) modeled in Mac1 crystal structure), the Isomers modeled result was “rr”.

For the compound `OCC1CCCN1c1ncnc2[nH]ccc12` (centres unmarked) [AVI-3685], the “fold decrease in affinity compared to AVI-607” value in test [1] (HTRF) was above 20 fold. For the same compound, the inhibition at 200 µM in test [1] (setting [6]) was 47%; in test [1] (setting [4]) it was 48%. The “Number of isomers bound” value in test [2] (setting [5]) was found to be 1.

As for `OCC(Cc1ccccc1)Nc1ncnc2[nH]ccc12` (centres unmarked) [AVI-313], in test [1] (SARS CoV-2 macrodomain HTRF assay), the “Ligand efficiency (binding enery per heavy atom)” value amounted to 0.27. In addition, in test [1] (SARS CoV-2 macrodomain HTRF assay, read-out: Ki), the Ki was found to be 120 µM. Besides, the IC50 in test [1] (read-out: HTRF IC50) was found to be 130 µM. Also, the “Number of isomers bound” value in test [2] (setting [5]) came to 2. Further, the Isomers modeled result in test [2] (setting [7]) was “S,R”.

In the case of `OC(c1ccccc1)C1CCCN1c1ncnc2[nH]ccc12` (centres unmarked) [AVI-3652], in test [1] (setting [6]), the inhibition at 200 µM came out at 35%. In addition, the inhibition at 200 µM in test [1] (setting [4]) stood at 35%. In test [2] (crystal soak 10 mM), the “PanDDA run, TFA/DMSO background map: 1-BDC” value stood at 0.16 and the “PanDDA run, TFA/DMSO background map: Hit” value was “TRUE”. Further, the “Number of isomers bound” value in test [2] (setting [5]) was found to be 1.

Consider `O=C(O)C(F)(F)F.O[C@H]1CCC[C@@H]1Nc1ncnc2[nH]ccc12` [AVI-3639], for which the inhibition at 200 µM in test [1] (setting [3]) was 74%. In addition, the inhibition at 200 µM in test [1] (setting [4]) worked out at 74%. For the same compound, in test [2] (crystal soak 10 mM), the “PanDDA run, TFA/DMSO background map: 1-BDC” value came out at 0.09 and the “PanDDA run, TFA/DMSO background map: Hit” value is “TRUE”. Besides, the “Number of isomers bound” value in test [2] (setting [5]) turned out to be 1.

As for `C[C@@H](O)[C@H](CO)Nc1ncnc2[nH]ccc12.O=C(O)C(F)(F)F` [AVI-3730], the inhibition at 200 µM in test [1] (setting [3]) worked out at 63%. In addition, the inhibition at 200 µM in test [1] (setting [4]) is 63%. Moreover, the “Number of isomers bound” value in test [2] (setting [5]) was found to be 1. In test [2] (soak concentration 10 mM), the “PanDDA run, TFA/DMSO background map: 1-BDC” value was 0.12 and the “PanDDA run, TFA/DMSO background map: Hit” value is “TRUE”.

For `OCC1C2CCC(C2)N1c1ncnc2[nH]ccc12` (centres unmarked) [AVI-3713], the IC50 in test [1] (setting [8]) was 27 µM. For the same compound, the Ki in test [1] (setting [9]) is 25 µM. The “Ligand efficiency (binding enery per heavy atom)” value in test [1] (setting [10]) was 0.35. In test [2] (setting [5]), the “Number of isomers bound” value is on record as 1. The Isomers modeled entry in test [2] (setting [7]) was “SSR”.

Regarding `CC(C)C1CCCN1c1ncnc2[nH]ccc12` (centres unmarked) [AVI-5216], the inhibition at 200 µM in test [1] (setting [6]) and in test [1] (setting [4]) was 35% each time. The “Number of isomers bound” value in test [2] (setting [11]) was 1.

Turning to `OC1CCCN(c2ncnc3[nH]ccc23)C1` (centres unmarked) [AVI-3646], the inhibition at 200 µM in test [1] (setting [3]) and in test [1] (setting [4]) was 20% throughout. In addition, the “PanDDA run, TFA/DMSO background map: 1-BDC” value in test [2] (crystal soak 10 mM) is 0.13. Moreover, the “PanDDA run, TFA/DMSO background map: Hit” value in test [2] (crystal soak 10 mM) is reported as “TRUE”. Besides, in test [2] (setting [5]), the “Number of isomers bound” value is given as 1.

In general, IC50 refers to the concentration at which inhibition is half-maximal. The term Ki denotes the dissociation constant of the complex between target and ligand, obtained from inhibition or displacement.
